# Experiments:
# type 2 diabetes = settings: Phase II; quoted from Meinke et al., Annual Reports in Medicinal Chemistry (2006); cited from earlier work
# [1] = test system: Bennett neuropathic pain model; assay: Bennett (chronic constriction injury) neuropathic pain model, cold plate / cold allodynia test; format: in vivo, rat; settings: for latency time to removal of the affected paw from a cold plate, difference from vehicle control: dosed orally at 100 mg/kg, measured one hour later, cold allodynia test, ANOVA p<0.05 (FIG. 1)
# Experimental: FIG. 1—Efficacy of PPARγ agonists Muraglitizar and Tesaglitizar in Bennett animal model for neuropathic pain. PPAR agonist compounds and positive control carbamazepine were dosed orally at 100 mg/kg, and pain behavior was measured one hour later with the cold allodynia test, as the latency time to removal of the affected paw from a cold plate. Statistical analysis of raw data was performed by analysis of variance (ANOVA), with significance threshold set at p<0.05. Analgesic activity was determined as a statistically significant increase in latency time to paw withdrawal in treated animals as compared to vehicle-treated animals. Comparisons for statistically significant differences in latency times were made between PPAR agonist compound-treated animals and vehicle controls, between carbamazepine-treated animals and vehicle controls, and between PPAR agonist compound-treated animals and carbamazepine-treated animals from the same experiment. All statistically significant differences between compared groups are indicated by the brackets, with *=p<0.05, and **=p<0.001.
# FIG. 3—Effect of carbamazepine (+ control) and 3-(2,4-dichlorobenzyl)-2-methyl-N-(pentylsulfonyl)-3H-benzimidazole-5-carboxamide (“Atx” in Figure) on the latency to lift paw from the cold plate 60 min following compound injection, in rats with the Bennett model of neuropathic pain. Data represent mean±SEM. Statistical analysis of data as for FIG. 1; *=p<0.05.
# These models are based on three surgical procedures: (i) the spinal nerve ligation (SNL) [Kim, S, and J. Chung, An experimental model for peripheral neuropathy produced by segmental spinal nerve ligation in the rat. Pain, 1992. 50: p. 355-363]; (ii) the partial sciatic nerve lesion (Seltzer) [Seltzer, Z., R. Dubner, and Y. Shir, A novel behavioral model of neuropathic pain disorders produced in rats by partial sciatic nerve injury. Pain, 1990. 43: p. 205-218]; (iii) and the chronic constriction injury [Bennett, G. and Y. Xie, A peripheral mononeuropathy in rat that produces disorders of pain sensation like those seen in man. Pain, 1988. 33: p. 87-107]. The Bennett model was used, as described below.
# Young adult, male Sprague Dawley rats (200-250 g) from Harlan were used. Upon receipt, animals were assigned unique identification numbers (tail marked) and housed 2-3 per cage in suspended polycarbonate rat cages with filter paper covering mesh shelf. Rats were acclimated for up to 7 days prior to surgery. […]
# The apparatus consists of a cold plate (Ugo Basile Hot/Cold Plate) measuring 25 (w)×37 (d)×16 (h) cm with a 10 cm thick aluminum circular plate. […] Baseline responses were measured on the day prior to drug administration. Each animal was tested by placing it on the cold plate (set to 4 C) and the latency of paw withdrawal was recorded. […]
# neurogenic pain model = settings: reported in WO2006085686; cited from earlier work
compound,measurement,setting,value
"CCCCCS(=O)(=O)NC(=O)c1ccc2nc(C)n(Cc3ccc(Cl)cc3Cl)c2c1 [Atx, 3-(2,4-dichlorobenzyl)-2-methyl-N-(pentylsulfonyl)-3H-benzimidazole-5-carboxamide]",advantage for type 2 diabetes in clinical trials,type 2 diabetes,no advantage [for type 2 diabetes] was demonstrated in clinical trials
same,"latency to lift paw from the cold plate, analgesic activity compared to carbamazepine (+ control)","[1]; 60 min following compound injection, rats with the Bennett model (FIG. 3)",not significantly different from carbamazepine
same,"latency to lift paw from the cold plate, analgesic activity compared to vehicle","[1]; 60 min following compound injection, rats with the Bennett model, p<0.05 (FIG. 3)",analgesic activity which is significantly greater than vehicle alone
"O=C(Nc1ccccc1)c1cc([N+](=O)[O-])ccc1Cl [GW9662, 2-chloro-5-nitro-N-phenylbenzamide]",activity in a neurogenic pain model,neurogenic pain model,demonstrates activity in a neurogenic pain model
COc1ccc(OC(=O)N(CC(=O)O)Cc2ccc(OCCc3nc(-c4ccccc4)oc3C)cc2)cc1 [Muraglitazar],"latency time to removal of the affected paw from a cold plate, difference from vehicle control",[1],neither of Muraglitazar or Tesaglitazar showed any statistically significant difference from a vehicle control
CCO[C@@H](Cc1ccc(OCCc2ccc(OS(C)(=O)=O)cc2)cc1)C(=O)O [Tesaglitazar],"latency time to removal of the affected paw from a cold plate, difference from vehicle control",[1],neither of Muraglitazar or Tesaglitazar showed any statistically significant difference from a vehicle control

# Reference: patent US8563589B2, “Methods of treating neuropathic pain with benzimidazole derivative agonists of PPARgamma” (priority 2009, dated 2013)
